This note sets out measurements from the NIST ThermoML archive (doi:10.1016/j.fluid.2014.02.029).

For the series the following is noted: 100 kPa, Liquid, Vibrating tube method.

SMILES strings stand for the structures. Numbers after ± are expanded uncertainties.

For `CCOCCOCCOC(C)=O` [2-(2-ethoxyethoxy)ethyl acetate], the mass density (293.15 K) is 1009.46 ± 0.25 kg/m3; the mass density (303.15 K) turned out to be 999.19 ± 0.24 kg/m3; the mass density (313.15 K) came out at 988.92 ± 0.24 kg/m3; the mass density (323.15 K) is 978.66 ± 0.24 kg/m3; the mass density (333.15 K) was 968.38 ± 0.24 kg/m3.
On to `CCCCOCCOC(C)=O` [2-butoxyethyl acetate], for which the mass density reads like this: (293.15 K) 940.7 ± 0.77 kg/m3; (303.15 K) 930.89 ± 0.76 kg/m3; (313.15 K) 921.05 ± 0.75 kg/m3; (323.15 K) 911.18 ± 0.74 kg/m3; (333.15 K) 901.29 ± 0.73 kg/m3.

For orientation: mass density means mass per unit of volume.
